We go through one molecule from US20230165821A1, “ELAFIBRANOR FOR THE TREATMENT OF PRIMARY SCLEROSING CHOLANGITIS” (Genfit, priority 2020, published 2023).

What all share (type): in vivo, human
Series [1] has as its system alkaline phosphatase (ALP) level. The series can be described thus: Phase I clinical trial, assessment of ALP level. Conditions: for Measure of ALP Day 15 change from the baseline: fasting, n=9, baseline day 1. The text has this:
(§1) Patients with clinical PSC have elevated alkaline phosphatase (ALP) and bilirubin levels. […] Some studies underline also elevated levels of bilirubin (Denau, M.R. et al., The Natural History of Primary Sclerosing Cholangitis in 781 Children: A Multicenter, International Collaboration. Hepatology (2017), Vol. 66, N° 2 pp518-527).
(§2) This clinical trial has been performed to assess the tolerability, safety and reduction of different parameters, including alkaline phosphatase of once-a-day administrations of oral doses of elafibranor (ELA) in […]. This was a phase I, single-center, double-blind, placebo-controlled, randomised, ascending multiple-dose study in healthy male volunteers. Doses of 40 mg or 60 mg once-a-day during 14 days were tested.
(§3) Thirty 19-40 years old Caucasian male volunteers were included: 9 for each treatment group and 12 for the placebo group.
(§4) The compound used was ELA, supplied in hard gelatin capsules dosed at 10 mg. Dose per administration was of 40 mg or 60 mg. Administration was repeated once-a-day, with an oral administration around 8 a.m. with 200 mL tap water, in sitting position, in fasting conditions, from day 1 to day 14. Matching placebo was presented as identical capsules.
Alkaline phosphatase level was assessed at baseline (day 1) and day 15.

In a further series the test system is total bilirubin level. As to the kind of experiment: Phase I clinical trial, assessment of bilirubin level. Particulars: for Measure of total bilirubin Day 15 change from the baseline: fasting, n=9.
Text: as §1, §2, §3, §4

For another series, the system named is healthy male volunteers. As to the kind of experiment: Phase I clinical trial, tolerability and safety. As for the experimental part: as §2, §3, §4
[2] abbreviates: ELA 40 mg/day oral once-a-day for 14 days.
The mark [3] stands for this setting: ELA 60 mg/day oral once-a-day for 14 days.

Entries after “also recorded” stand apart in the source; their conditions may differ.

For the molecule `CSc1ccc(C(=O)C=Cc2cc(C)c(OC(C)(C)C(=O)O)c(C)c2)cc1` [ELA, 2-(2,6-dimethyl-4-{3-[4-(methylsulfanyl)phenyl]-3-oxopropen-1-yl}phenoxy)-2-methylpropanoic acid], the “Measure of ALP Day 15 change from the baseline” value in series [1] (setting [2]) is reported as -8.3; in series [1] (setting [3]), -20.7. Also, in series [1] (both doses (40 mg and 60 mg), once-a-day, 14 days, listed as elafibranor), the “Alkaline phosphatase levels compared to placebo group” value is listed as “improved alkaline phosphatase levels compared to placebo group; also recorded: decreased mean ALP compared with placebo”. Moreover, the figures for the “Measure of total bilirubin Day 15 change from the baseline” value in the series with total bilirubin level (setting [2]) and with total bilirubin level (setting [3]) were -2.07 and -2.46, respectively. For the same molecule, in the series on total bilirubin level (both doses (40 mg and 60 mg), once-a-day, 14 days), the “Total bilirubin levels compared to placebo group” value is listed as “improved total bilirubin levels compared to placebo group”. Further, the Serious adverse events result in the series with healthy male volunteers (40 mg or 60 mg once-a-day, 14 days, oral) is reported as “No serious adverse events were reported”. The Clinical tolerance entry with healthy male volunteers (repeated administration at either dose (40 mg or 60 mg), healthy volunteers) is “good clinical tolerance”.
